Laboratory results from ChEMBL document CHEMBL3352126, “Bahamaolide A from the marine-derived Streptomyces sp. CNQ343 inhibits isocitrate lyase in Candida albicans” (Bioorg Med Chem Lett, 2014).
In brackets after ≈: the same amount, converted by molar mass. Activity calls are given as the source filed them. The calls are words filed in the database; no cut-off is given here.

What was measured:
Isocitrate lyase = Isocitrate lyase (Candida albicans, UniProt Q9P8Q7); test: Inhibition of Candida albicans ATCC 10231 isocitrate lyase
Chain of Isocitrate lyase (Q9P8Q7 whole entry): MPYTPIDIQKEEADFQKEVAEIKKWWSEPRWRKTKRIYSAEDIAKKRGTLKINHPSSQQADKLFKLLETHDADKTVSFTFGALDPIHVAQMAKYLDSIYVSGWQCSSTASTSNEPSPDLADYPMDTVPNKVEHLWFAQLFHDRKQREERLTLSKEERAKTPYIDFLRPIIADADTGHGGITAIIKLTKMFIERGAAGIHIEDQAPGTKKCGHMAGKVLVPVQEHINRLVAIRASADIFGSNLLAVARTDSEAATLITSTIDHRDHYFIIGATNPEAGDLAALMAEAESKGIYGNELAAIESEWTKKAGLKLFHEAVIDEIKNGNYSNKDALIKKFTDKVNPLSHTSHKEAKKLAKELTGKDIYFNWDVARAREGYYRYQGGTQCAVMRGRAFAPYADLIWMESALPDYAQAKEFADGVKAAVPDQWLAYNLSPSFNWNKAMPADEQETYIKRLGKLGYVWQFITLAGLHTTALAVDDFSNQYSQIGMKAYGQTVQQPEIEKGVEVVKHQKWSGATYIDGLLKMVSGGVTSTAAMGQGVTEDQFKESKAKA

Candida albicans [1] = test: Antifungal activity against Candida albicans SC5314 in YNB broth containing 2% glucose as sole carbon source after 72 hrs by broth dilution assay; type: functional; conditions: SC5314, 72 h
Candida albicans [2] = test: Antifungal activity against Candida albicans ATCC 10231 in YNB broth containing 2% glucose as sole carbon source after 72 hrs by broth dilution assay; type: functional; conditions: ATCC 10231, 72 h
Candida albicans [3] = test: Antifungal activity against Candida albicans ATCC 10259 in YNB broth containing 2% glucose as sole carbon source after 72 hrs by broth dilution assay; type: functional; conditions: ATCC 10259, 72 h
Candida albicans [4] = test: Antifungal activity against Candida albicans ATCC 11006 in YNB broth containing 2% glucose as sole carbon source after 72 hrs by broth dilution assay; type: functional; conditions: ATCC 11006, 72 h
Candida albicans [5] = test: Antifungal activity against Candida albicans ATCC 18804 in YNB broth containing 2% glucose as sole carbon source after 72 hrs by broth dilution assay; type: functional; conditions: ATCC 18804, 72 h
Candida albicans [6] = test: Antifungal activity against Candida albicans SC5314 in YNB broth containing 2% potassium acetate as sole carbon source after 72 hrs by broth dilution assay; type: functional; conditions: SC5314, 72 h
Candida albicans [7] = test: Antifungal activity against Candida albicans ATCC 10231 in YNB broth containing 2% potassium acetate as sole carbon source after 72 hrs by broth dilution assay; type: functional; conditions: ATCC 10231, 72 h
Candida albicans [8] = test: Antifungal activity against Candida albicans ATCC 10259 in YNB broth containing 2% potassium acetate as sole carbon source after 72 hrs by broth dilution assay; type: functional; conditions: ATCC 10259, 72 h
Candida albicans [9] = test: Antifungal activity against Candida albicans ATCC 11006 in YNB broth containing 2% potassium acetate as sole carbon source after 72 hrs by broth dilution assay; type: functional; conditions: ATCC 11006, 72 h
Candida albicans [10] = test: Antifungal activity against Candida albicans ATCC 18804 in YNB broth containing 2% potassium acetate as sole carbon source after 72 hrs by broth dilution assay; type: functional; conditions: ATCC 18804, 72 h
Candida albicans [11] = test: Antifungal activity against Candida albicans SC5314 in YNB broth containing 2% glucose as sole carbon source at 3.12 ug/mL after 72 hrs by broth dilution assay; type: functional, organism-based
Candida albicans [12] = test: Antifungal activity against Candida albicans MRC10 (deltaicl) in YNB broth containing 2% potassium acetate as sole carbon source at 3.12 ug/mL after 72 hrs by broth dilution assay; type: functional, organism-based
Candida albicans [13] = test: Antifungal activity against Candida albicans Candida albicans MRC11 (deltaicl + ICL) in YNB broth containing 2% potassium acetate as sole carbon source at 3.12 ug/mL after 72 hrs by broth dilution assay; type: functional, organism-based
Candida albicans [14] = test: Inhibition of ICL mRNA expression in Candida albicans SC5314 in YNB broth containing 2% potassium acetate as sole carbon source at 3.12 ug/mL after 48 hrs by real time RT-PCR method; type: functional
Candida albicans [15] = test: Inhibition of ICL mRNA expression in Candida albicans MRC10 (deltaicl) in YNB broth containing 2% potassium acetate as sole carbon source at 3.12 ug/mL after 48 hrs by real time RT-PCR method; type: functional, organism-based
Candida albicans [16] = test: Inhibition of ICL mRNA expression in Candida albicans MRC11 (deltaicl + ICL) in YNB broth containing 2% potassium acetate as sole carbon source at 3.12 ug/mL after 48 hrs by real time RT-PCR method; type: functional, organism-based

## O=C(O)CC[N+](=O)[O-]
Isocitrate lyase
  IC50: 17.3 µM

## C[C@@H]1[C@H](O)[C@@H](C)/C=C/C=C/C=C/C=C/C=C/C=C/C=C/[C@H](O[C@@H]2O[C@H](C)[C@@H](O)[C@H](N)[C@@H]2O)C[C@@H]2O[C@](O)(C[C@@H](O)C[C@@H](O)[C@H](O)CC[C@@H](O)C[C@@H](O)CC(=O)O[C@H]1C)C[C@H](O)[C@H]2C(=O)O [AMPHOTERICIN B]
Candida albicans [1]
  MIC: 1.56 µg/mL (≈ 1.69 µM)
Candida albicans [2]
  MIC: 1.56 µg/mL (≈ 1.69 µM)
Candida albicans [3]
  MIC: 3.12 µg/mL (≈ 3.38 µM)
Candida albicans [4]
  MIC: 1.56 µg/mL (≈ 1.69 µM)
Candida albicans [5]
  MIC: 1.56 µg/mL (≈ 1.69 µM)
Candida albicans [6]
  MIC: 0.39 µg/mL (≈ 0.422 µM)
Candida albicans [7]
  MIC: 0.78 µg/mL (≈ 0.844 µM)
Candida albicans [8]
  MIC: 1.56 µg/mL (≈ 1.69 µM)
Candida albicans [9]
  MIC: 0.78 µg/mL (≈ 0.844 µM)
Candida albicans [10]
  MIC: 0.78 µg/mL (≈ 0.844 µM)

## CC(C)[C@@H]1OC(=O)/C=C/C=C/C=C/C=C/C=C/C=C/C[C@@H](O)C[C@H](O)C[C@H](O)C[C@H](O)C[C@@H](O)C[C@H](O)C[C@@H](O)C[C@@H](O)C[C@@H](O)CC[C@@H]1C [BAHAMAOLIDE A]
Isocitrate lyase
  IC50: 11.8 µM
Candida albicans [1]
  MIC: 25 µg/mL (≈ 35.3 µM)
Candida albicans [2]
  MIC: 25 µg/mL (≈ 35.3 µM)
Candida albicans [3]
  MIC: 25 µg/mL (≈ 35.3 µM)
Candida albicans [4]
  MIC: 12.5 µg/mL (≈ 17.6 µM)
Candida albicans [5]
  MIC: 25 µg/mL (≈ 35.3 µM)
Candida albicans [6]
  MIC: 3.12 µg/mL (≈ 4.4 µM)
Candida albicans [7]
  MIC: 3.12 µg/mL (≈ 4.4 µM)
Candida albicans [8]
  MIC: 3.12 µg/mL (≈ 4.4 µM)
Candida albicans [9]
  MIC: 1.56 µg/mL (≈ 2.2 µM)
Candida albicans [10]
  MIC: 3.12 µg/mL (≈ 4.4 µM)
Candida albicans [11]
  growth inhibition (GI): inactive
Candida albicans [12]
  growth inhibition (GI): Active
Candida albicans [13]
  growth inhibition (GI): Active
Candida albicans [14]
  fold change (FC): 5
Candida albicans [15]
  inhibition: Active
Candida albicans [16]
  inhibition: Active
